Data: US20260234129A1, “NOVEL IMIDAZOLE DERIVATIVE AND USE THEREOF” (PELEMED CO., LTD., priority 2023, published 2026)
Read-outs that look alike come from different tables or passages of the source.

Test system: MV4-11 cells (FLT3-ITD-expressing AML cell line)
Test: Cell proliferation inhibition, Alamar Blue
Assay type: cell-based, human
Settings: read-out: Cellular (GI50) MV4-11
Protocol: The cell proliferation inhibition experiment on acute myeloid leukemia (AML) cell lines was performed using FL3-ITD-expressing AML cell line MV4-11, BaF3-ITD-FLT3 F691L cell line, and BaF3-ITD-FLT3 D835Y cell line to test FLT3 inhibitory activity. All cell lines were human-derived cell lines, and the sources and culture conditions for each cell line are as follows.
Cell viability was assessed by a resazurin redox-based assay using the Alamar Blue Assay kit (Invitrogen, USA). Specifically, MV4-11, BaF3-ITD-FLT3-F691L, and BaF3-ITD-FLT3-D835Y cells were plated in 384-well plates at 8,000 cells in 45 μL of medium. As a negative control, dimethyl sulfoxide (DMSO) was added together with the compound. After three days (72 hours) of compound treatment, 5 μL of the Alamar Blue kit reagent was added to each well of the 384-well plates, followed by incubation at 37° C. for 2 hours in a humidified CO2 incubator. After incubation, fluorescence intensity (Flu) was measured at 544 nm and 590 nm using a SpectraMax iD3 Multi Mode Microplate Reader (Molecular Devices, ID3-STD).

[1] = Homo sapiens, MV4-11, 72 hours of compound treatment

SMILES: CN1CCN(C(=O)c2ccc3[nH]nc(-c4nc5ccccc5[nH]4)c3c2)CC1 [Example 2, (3-(1H-benzo[d]imidazol-2-yl)-1H-indazol-5-yl)(4-methylpiperazin-1-yl)methanone]
- GI50 [1]: 0.1 to 1 µM

SMILES: O=C(c1ccc2[nH]nc(-c3nc4ccccc4[nH]3)c2c1)N1CCN(c2ccc(F)cc2)CC1 [Example 3, (3-(1H-benzo[d]imidazol-2-yl)-1H-indazol-5-yl)(4-(4-fluorophenyl)piperazin-1-yl)methanone]
- GI50 [1]: > 1 µM

SMILES: NC1CCN(CCNC(=O)c2ccc3[nH]nc(-c4nc5ccccc5[nH]4)c3c2)CC1 [Example 8, N-(2-(4-aminopiperidin-1-yl)ethyl)-3-(1H-benzo[d]imidazol-2-yl)-1H-indazole-5-carboxamide]
- GI50 [1]: 0.01 to 0.1 µM

SMILES: CN(C)CCCNC(=O)c1ccc2[nH]nc(-c3nc4cc(F)c(F)cc4[nH]3)c2c1 [Example 9, 3-(5,6-difluoro-1H-benzo[d]imidazol-2-yl)-N-(3-(dimethylamino)propyl)-1H-indazole-5-carboxamide]
- GI50 [1]: 0.01 to 0.1 µM

SMILES: CN(C)CCCNC(=O)c1ccc2[nH]nc(-c3nc4ccc(C#N)cc4[nH]3)c2c1 [Example 10, 3-(6-cyano-1H-benzo[d]imidazol-2-yl)-N-(3-(dimethylamino)propyl)-1H-indazole-5-carboxamide]
- GI50 [1]: 0.1 to 1 µM

SMILES: C[C@@H]1CN(c2ccc3nc(-c4n[nH]c5ccc(C(=O)NCCCN)cc45)[nH]c3c2)C[C@H](C)N1 [Example 19, N-(3-aminopropyl)-3-(6-((3S,5R)-3,5-dimethylpiperazin-1-yl)-1H-benzo[d]imidazol-2-yl)-1H-indazole-5-carboxamide]
- GI50 [1]: 0.1 to 1 µM

SMILES: CN(C)CCOc1ccc2nc(-c3n[nH]c4ccc(C(=O)NCCCN)cc34)[nH]c2c1 [Example 24, N-(3-aminopropyl)-3-(6-(2-(dimethylamino)ethoxy)-1H-benzo[d]imidazol-2-yl)-1H-indazole-5-carboxamide]
- GI50 [1]: 0.1 to 1 µM

SMILES: NCCCNC(=O)c1ccc2[nH]nc(-c3nc4cccc(F)c4[nH]3)c2c1 [Example 25, N-(3-aminopropyl)-3-(7-fluoro-1H-benzo[d]imidazol-2-yl)-1H-indazole-5-carboxamide]
- GI50 [1]: 0.01 to 0.1 µM

SMILES: NCCCNC(=O)c1ccc2[nH]nc(-c3nc4ccc(Cl)cc4[nH]3)c2c1 [Example 27, N-(3-aminopropyl)-3-(6-chloro-1H-benzo[d]imidazol-2-yl)-1H-indazole-5-carboxamide]
- GI50 [1]: 0.01 to 0.1 µM

SMILES: NCCCNC(=O)c1ccc2[nH]nc(-c3nc4ccc(Br)cc4[nH]3)c2c1 [Example 28, N-(3-aminopropyl)-3-(6-bromo-1H-benzo[d]imidazol-2-yl)-1H-indazole-5-carboxamide]
- GI50 [1]: 0.01 to 0.1 µM

SMILES: CC(=O)NCCCNC(=O)c1ccc2[nH]nc(-c3nc4ccc(N5CCCCC5)cc4[nH]3)c2c1 [Example 33, N-(3-acetamidopropyl)-3-(6-(piperidin-1-yl)-1H-benzo[d]imidazol-2-yl)-1H-indazole-5-carboxamide]
- GI50 [1]: < 0.01 µM

SMILES: CN1CCN(C2CCN(C(=O)c3ccc4[nH]nc(-c5nc6ccc(F)cc6[nH]5)c4c3)CC2)CC1 [Example 34, (3-(6-fluoro-1H-benzo[d]imidazol-2-yl)-1H-indazol-5-yl)(4-(4-methylpiperazin-1-yl)piperidin-1-yl)methanone]
- GI50 [1]: > 1 µM

SMILES: CN(C)CCNC(=O)c1ccc2[nH]nc(-c3nc4ccc(F)cc4[nH]3)c2c1 [Example 35, N-(2-(dimethylamino)ethyl)-3-(6-fluoro-1H-benzo[d]imidazol-2-yl)-1H-indazole-5-carboxamide]
- GI50 [1]: 0.01 to 0.1 µM

SMILES: CN(C)CCCNC(=O)c1ccc2[nH]nc(-c3nc4ccc(F)cc4[nH]3)c2c1 [Example 36, N-(3-(dimethylamino)propyl)-3-(6-fluoro-1H-benzo[d]imidazol-2-yl)-1H-indazole-5-carboxamide]
- GI50 [1]: 0.01 to 0.1 µM

SMILES: NCCNC(=O)c1ccc2[nH]nc(-c3nc4ccc(F)cc4[nH]3)c2c1 [Example 37, N-(2-aminoethyl)-3-(6-fluoro-1H-benzo[d]imidazol-2-yl)-1H-indazole-5-carboxamide]
- GI50 [1]: 0.01 to 0.1 µM

SMILES: NCCCCNC(=O)c1ccc2[nH]nc(-c3nc4ccc(F)cc4[nH]3)c2c1 [Example 39, N-(4-aminobutyl)-3-(6-fluoro-1H-benzo[d]imidazol-2-yl)-1H-indazole-5-carboxamide]
- GI50 [1]: 0.1 to 1 µM

SMILES: O=C(NC1CCNCC1)c1ccc2[nH]nc(-c3nc4ccc(F)cc4[nH]3)c2c1 [Example 40, 3-(6-fluoro-1H-benzo[d]imidazol-2-yl)-N-(piperidin-4-yl)-1H-indazole-5-carboxamide]
- GI50 [1]: 0.01 to 0.1 µM

SMILES: O=C(N[C@@H]1CCCNC1)c1ccc2[nH]nc(-c3nc4ccc(F)cc4[nH]3)c2c1 [Example 41, (R)-3-(6-fluoro-1H-benzo[d]imidazol-2-yl)-N-(piperidin-3-yl)-1H-indazole-5-carboxamide]
- GI50 [1]: > 1 µM

SMILES: CC(=O)N1CC2(C1)CN(C(=O)c1ccc3[nH]nc(-c4nc5ccc(N6CCOCC6)cc5[nH]4)c3c1)C2 [Example 60, 1-(6-(3-(6-morpholino-1H-benzo[d]imidazol-2-yl)-1H-indazole-5-carbonyl)-2,6-diazaspiro[3.3]heptan-2-yl)ethan-1-one]
- GI50 [1]: > 1 µM

SMILES: CC(=O)N1CC(CNC(=O)c2ccc3[nH]nc(-c4nc5ccc(N6CCOCC6)cc5[nH]4)c3c2)C1 [Example 61, N-((1-acetylazetidin-3-yl)methyl)-3-(6-morpholino-1H-benzo[d]imidazol-2-yl)-1H-indazole-5-carboxamide]
- GI50 [1]: > 1 µM

SMILES: CN(C)CCNC(=O)c1ccc2[nH]nc(-c3nc4ccc(N5CCOCC5)cc4[nH]3)c2c1 [Example 62, N-(2-(dimethylamino)ethyl)-3-(6-morpholino-1H-benzo[d]imidazol-2-yl)-1H-indazole-5-carboxamide]
- GI50 [1]: < 0.01 µM

SMILES: O=C(c1ccc2[nH]nc(-c3nc4ccc(N5CCOCC5)cc4[nH]3)c2c1)N1C[C@H]2C[C@@H]1CN2 [Example 65, ((1R,4R)-2,5-diazabicyclo[2.2.1]heptan-2-yl)(3-(6-morpholino-1H-benzo[d]imidazol-2-yl)-1H-indazol-5-yl)methanone]
- GI50 [1]: 0.01 to 0.1 µM

SMILES: O=C(c1ccc2[nH]nc(-c3nc4ccc(N5CCOCC5)cc4[nH]3)c2c1)N1C[C@@H]2C[C@H]1CN2 [Example 66, ((1S,4S)-2,5-diazabicyclo[2.2.1]heptan-2-yl)(3-(6-morpholino-1H-benzo[d]imidazol-2-yl)-1H-indazol-5-yl)methanone]
- GI50 [1]: 0.01 to 0.1 µM

SMILES: CNC1CCN(C(=O)c2ccc3[nH]nc(-c4nc5ccc(N6CCOCC6)cc5[nH]4)c3c2)CC1 [Example 70, (4-(methylamino)piperidin-1-yl)(3-(6-morpholino-1H-benzo[d]imidazol-2-yl)-1H-indazol-5-yl)methanone]
- GI50 [1]: 0.01 to 0.1 µM

SMILES: O=C(N[C@@H]1[C@@H]2CNC[C@@H]21)c1ccc2[nH]nc(-c3nc4ccc(N5CCOCC5)cc4[nH]3)c2c1 [Example 71, N-((1R,5S,6r)-3-azabicyclo[3.1.0]hexan-6-yl)-3-(6-morpholino-1H-benzo[d]imidazol-2-yl)-1H-indazole-5-carboxamide]
- GI50 (72 hours of compound treatment): 0.01 to 0.1 µM

SMILES: Nc1ccc(NC(=O)c2ccc3[nH]nc(-c4nc5ccc(N6CCOCC6)cc5[nH]4)c3c2)cc1 [Example 72, N-(4-aminophenyl)-3-(6-morpholino-1H-benzo[d]imidazol-2-yl)-1H-indazole-5-carboxamide]
- GI50 [1]: 0.01 to 0.1 µM

SMILES: NCCCNC(=O)c1ccc2[nH]nc(-c3ncc(-c4ccc(F)cc4)[nH]3)c2c1 [Example 81, N-(3-aminopropyl)-3-(5-(4-fluorophenyl)-1H-imidazol-2-yl)-1H-indazole-5-carboxamide]
- GI50 [1]: 0.01 to 0.1 µM

SMILES: NCCCNC(=O)c1ccc2[nH]nc(-c3ncc(-c4cccc(F)c4)[nH]3)c2c1 [Example 82, N-(3-aminopropyl)-3-(5-(3-fluorophenyl)-1H-imidazol-2-yl)-1H-indazole-5-carboxamide]
- GI50 [1]: 0.01 to 0.1 µM

SMILES: NCCCNC(=O)c1ccc2[nH]nc(-c3ncc(-c4ccccc4F)[nH]3)c2c1 [Example 83, N-(3-aminopropyl)-3-(5-(2-fluorophenyl)-1H-imidazol-2-yl)-1H-indazole-5-carboxamide]
- GI50 [1]: 0.01 to 0.1 µM

SMILES: NCCCNC(=O)c1ccc2[nH]nc(-c3ncc(-c4ccc(Cl)c(F)c4)[nH]3)c2c1 [Example 85, N-(3-aminopropyl)-3-(5-(4-chloro-3-fluorophenyl)-1H-imidazol-2-yl)-1H-indazole-5-carboxamide]
- GI50 [1]: 0.01 to 0.1 µM

SMILES: NCCCNC(=O)c1ccc2[nH]nc(-c3ncc(-c4ccc(C(F)(F)F)cc4)[nH]3)c2c1 [Example 86, N-(3-aminopropyl)-3-(5-(4-(trifluoromethyl)phenyl)-1H-imidazol-2-yl)-1H-indazole-5-carboxamide]
- GI50 [1]: 0.01 to 0.1 µM

SMILES: COc1c(Cl)cc(Cl)cc1-c1cnc(-c2n[nH]c3ccc(C(=O)NCCCN)cc23)[nH]1 [Example 87, N-(3-aminopropyl)-3-(5-(3,5-dichloro-2-methoxyphenyl)-1H-imidazol-2-yl)-1H-indazole-5-carboxamide]
- GI50 [1]: 0.01 to 0.1 µM

SMILES: COc1cccc(-c2cnc(-c3n[nH]c4ccc(C(=O)NCCCN)cc34)[nH]2)c1 [Example 88, N-(3-aminopropyl)-3-(5-(3-methoxyphenyl)-1H-imidazol-2-yl)-1H-indazole-5-carboxamide]
- GI50 [1]: 0.01 to 0.1 µM

SMILES: NCCCNC(=O)c1ccc2[nH]nc(-c3ncc(-c4cccc([N+](=O)[O-])c4)[nH]3)c2c1 [Example 89, N-(3-aminopropyl)-3-(5-(3-nitrophenyl)-1H-imidazol-2-yl)-1H-indazole-5-carboxamide]
- GI50 [1]: 0.1 to 1 µM
